The results in this text go back to patent EP0406111A1, “Substituted arylamines and heteroarylamines, process for their preparation and pharmaceutical composition containing them” (SOCIETE DE CONSEILS DE […] D'APPLICATIONS SCIENTIFIQUES …, priority 1989, dated 1991).

One assay deals with T1, recapture de la dopamine (Rattus norvegicus, UniProt P23977).
T1 construct: Cultures primaires de neurones; endogenous in cells; host or cells: primary neurons from substantia nigra of 14-day rat embryos
The assay is described as follows: Inhibition of (3H)DA reuptake in primary cultured neurons (Example 39). The assay is classed as cell-based. Conditions: for Recapture de (³H)DA nH (nombre de Hill) / IC50: cultured neurons from rat embryos; for IC50: 10⁻⁸M (3H)DA, 10 min at 37°C, read-out: Recapture de (³H)DA IC 50. The source says:
(§1) Exemple 39 : Etude de l'inhibition de la recapture de la dopamine et de la noradrénaline sur des neurones en culture.
(§2) a) Cultures primaires de neurones.
(§3) La substance noire, structure riche en cellules dopaminergiques, ou le locus coeruleus, contenant les corps cellulaires noradrénergiques, sont disséqués à partir d'embryons de rats de 14 jours, âge auquel les cellules ont terminé leur mitose. Les cellules sont dissociées mécaniquement dans un milieu sans calcium ni magnésium.
(§4) L'ensemencement est réalisé dans des puits prétraités avec de la D-polylysine, à une densité de 150 000 cellules/puits, dans 400µl de milieu de culture composé de 70% de M.E.M.; 25% de Hanks; 5% de Nu-serum décomplémenté; plus 3% de D-glucose (1/20).
(§5) Le milieu de culture est renouvelé au tiers tous les trois jours, jusqu'à 9 jours de développement "in vitro", âge auquel les cellules paraissent matures. A cet âge, la culture ne présente pas encore de cellule gliales.
(§6) b) Test d'inhibition de la recapture de la dopamine et de la noradrénaline.
(§7) On pré-incube les cellules obtenues en a) pendand 15min, à la température ambiante, avec 40µl d'un tampon constitué par le Ringer Phosphate-disodique 5 mM pH=7,6 dont la composition en concentrations finales est la suivante : NaCl 120mM; CaCl₂ 2,6 mM; MgCl₂ 1,3 mM; KCl 5mM; D-glucose 3 mM; Na₂HPO₄5mM.
(§8) On incube ensuite pendant 10min à 37°C avec le même tampon en présence de (³H)Da ou de (³H)NA à une concentration finale 10⁻⁸M et une dilution isotopique de 1/5, et de concentrations croissantes en composé à tester dans un volume final de 400µl.
(§9) On rince ensuite trois fois rapidement avec 750µl du même tampon à 4°C, ce qui correspond à une durée totale de 10 secondes.
(§10) On récupère alors les cellules dans 2 fois 500µl de NaOH 0,5N et on détermine leur radioactivité par comptage avec 4ml de scintillant et 50µl d'acide acétique glacial.
Avant les rinçages, on a prélevé un aliquote de 100µl du milieu d'incubation et on a déterminé la radioactivité libre sur celui-ci par comptage avec 5ml de scintillant.
La recapture spécifique de la (³H)DA ou de (³H)NA est déduite de la différence entre la recapture totale et la diffusion passive pour chacun des composés testés.

Assay [1] deals with recapture de la noradrénaline (Rattus norvegicus, UniProt Q63380). Kind of assay: Inhibition of (3H)NA reuptake in primary cultured neurons (Example 39). Format: cell-based. The settings on record: for Recapture de (³H)NA nH (nombre de Hill): cultured neurons from rat embryos.
From the text: as §1, §2, §3, §4, §5, §6, §7, §8, §9, §10
Avant les rinçages, on a prélevé un aliquote de 100µl du milieu d'incubation et on a déterminé la radioactivité libre sur celui-ci par comptage avec 5ml de scintillant. […]

T1 sequence (P23977 whole entry): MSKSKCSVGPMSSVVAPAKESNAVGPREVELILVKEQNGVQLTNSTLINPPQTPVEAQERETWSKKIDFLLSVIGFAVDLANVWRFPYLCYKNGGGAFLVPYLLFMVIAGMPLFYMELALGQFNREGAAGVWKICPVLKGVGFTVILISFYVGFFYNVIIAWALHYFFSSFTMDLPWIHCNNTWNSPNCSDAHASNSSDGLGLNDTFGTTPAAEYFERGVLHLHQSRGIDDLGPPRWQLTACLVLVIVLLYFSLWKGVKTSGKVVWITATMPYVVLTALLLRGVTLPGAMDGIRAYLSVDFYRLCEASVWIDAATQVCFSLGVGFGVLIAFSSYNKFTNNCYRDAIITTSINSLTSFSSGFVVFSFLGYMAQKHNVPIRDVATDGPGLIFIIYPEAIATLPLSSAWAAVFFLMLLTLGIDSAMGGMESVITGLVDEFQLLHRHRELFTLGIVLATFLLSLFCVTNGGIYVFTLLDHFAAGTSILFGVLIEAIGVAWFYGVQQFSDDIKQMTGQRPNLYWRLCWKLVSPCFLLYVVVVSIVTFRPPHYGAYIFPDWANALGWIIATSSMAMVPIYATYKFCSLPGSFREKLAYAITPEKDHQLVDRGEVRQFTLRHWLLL
recapture de la noradrénaline, sequence (Q63380 1-617): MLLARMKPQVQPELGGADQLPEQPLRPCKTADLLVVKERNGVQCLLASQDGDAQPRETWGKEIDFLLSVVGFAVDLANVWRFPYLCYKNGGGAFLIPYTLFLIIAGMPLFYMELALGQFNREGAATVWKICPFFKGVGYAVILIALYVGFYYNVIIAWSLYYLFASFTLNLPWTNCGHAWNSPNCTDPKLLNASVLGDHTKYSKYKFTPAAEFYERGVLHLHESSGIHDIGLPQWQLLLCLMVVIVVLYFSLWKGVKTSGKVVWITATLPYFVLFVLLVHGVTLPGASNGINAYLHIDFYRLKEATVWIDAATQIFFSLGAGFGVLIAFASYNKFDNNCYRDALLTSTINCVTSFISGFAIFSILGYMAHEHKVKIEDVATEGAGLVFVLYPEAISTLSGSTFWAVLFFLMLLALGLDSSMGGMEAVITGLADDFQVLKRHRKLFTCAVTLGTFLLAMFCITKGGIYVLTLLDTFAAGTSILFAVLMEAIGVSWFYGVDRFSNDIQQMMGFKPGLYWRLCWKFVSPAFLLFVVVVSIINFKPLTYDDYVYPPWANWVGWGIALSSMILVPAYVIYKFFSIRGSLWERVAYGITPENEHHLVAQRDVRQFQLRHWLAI

On to `CC1CCCN(C2(c3cc4ccccc4s3)CCCCC2)C1` (stereo not drawn) [composé n^o 2, (benzo(b)thiophényl-2)-1 ((méthyl-3 pipéridino)-1)-1 cyclohexane], for which, on recapture de la dopamine, the “Recapture de (³H)DA nH (nombre de Hill)” value is recorded as 0,95 and the IC50 is 70 nM.
Turning to `CC1CC(C)CN(C2(c3cc4ccccc4s3)CCCCC2)C1` (stereo not drawn) [composé n^o 6, (benzo(b)thiophényl-2)-1 ((diméthyl-3,5 pipéridino)-1)-1 cyclohexane], the “Recapture de la dopamine, result in words” value on recapture de la dopamine (cultured neurons) is reported as “inhibiteur très puissant”. At recapture de la dopamine, the “Recapture de (³H)DA nH (nombre de Hill)” value is recorded as 0,95 and the IC50 came out at 1.47 nM. For the same molecule, the “Recapture de la noradrénaline, result in words” value in assay [1] (cultured neurons) was “inhibiteur très puissant”. Besides, in assay [1], the “Recapture de (³H)NA nH (nombre de Hill)” value is on record as 1,2.
With `OC1CCN(C2(c3cc4ccccc4s3)CCCCC2)CC1` [composé 26, (benzo(b)thiophényl-2)-1( (ol-4-pipéridino)-1)-1 cyclohexane], on recapture de la dopamine, the “Recapture de (³H)DA nH (nombre de Hill)” value was 1,09 and the IC50 was determined as 17 nM.
As for `CCCN(CCC)C1(c2cc3ccccc3s2)CCCCC1` [composé no 3, (benzo(b)thiophényl-2)-1 (dipropylamino-1)-1 cyclohexane], in assay [1], the “Recapture de (³H)NA nH (nombre de Hill)” value was 0,85.
Consider `C[C@H]1CC[C@@](c2cc3ccccc3s2)(N2CCCCC2)CC1` [composé n^o 21, (benzo(b)thiophényl-2)-1 c-méthyl-4-r-(pipéridino-1)-1 cyclohexane], for which, at recapture de la dopamine, the “Recapture de (³H)DA nH (nombre de Hill)” value was 1,07 and the IC50 was 8 nM.
